From US20130011845A1, “MICRORNA REGULATING THE INSULIN SIGNALING PATHWAY, AND METHOD FOR SCREENING MATERIAL FOR CONTROLLING THE ACTION OF A TARGET THEREOF” (SNU R & DB Foundation, priority 2009, published 2013)

What was measured:
[1] = test system: FOXO; assay: FOXO luciferase reporter (pFK1tk-luc) assay in Hep3B cells; type: cell-based, human
Excerpt: The inventors analyzed the effect of miR-200 miRNAs on the downstream transducers of Akt (see FIGS. 44 to 47). Because Akt represses FOXO activity, the inventors used a luciferase reporter plasmid (pFK1tk-luc) (Biggs, W H et al., 1999, Proc Natl Acad Sci USA 96, 7421-7426) containing eight FOXO-binding sites to determine the level of FOXO activity in cultured cells. Specifically, Hep3B cells were transfected with synthesized siGFP, miR-141, miR-200a, miR-200b, miR-200c, miR-429 or siFOG2 together with pFK1tk-luc vector, and then luciferase activity was measured in the same manner as described Example 8-2. Also, Hep3B cells were transfected with luciferase, or oligonucleotides having complementary sequence to miR-141, miR-200a, miR-200b, miR-200c or miR-429 together with pFK1tk-luc vector. Then, the luciferase activity was measured in the same manner as described above. Further, Hep3B cell lines were transfected with pCK-flag (empty vector) and pCK-FOG2 produced in Example 16-1, and the luciferase activity was measured in the same manner as described above. […] Further, treating the cells with miR-200 inhibitors elevated FOXO activity (see FIG. 46).

[2] = test system: TCF7L1 3′UTR; assay: dual-luciferase 3′UTR reporter assay, pAC-TCF7L1; type: cell-based; settings: luciferase reporter with TCF7L1 3′UTR, human Hela cell lines; average of at least two independent experiments
Procedure: (§1) In order to determine whether the target genes identified in Example 7 are in actuality targets of miR-8 and miR-200 family miRNAs, the inventors performed cloning. In other words, […] containing the miRNA target sites. Specifically, in order to obtain cDNAs of respective target genes, from drosophila S2 cell lines or human Hela cell lines, total RNA was extracted by using RNeasy mini kit (QIAGEN, US). 1 μg of total RNA and 1 μl of Oligo-dT (Invitrogen, US) were charged with up to 50 μl of distilled water, and placed into SuperScript First-Strand Synthesis System (Invitrogen, US), followed by RT-PCR reaction. Through the reaction at 65° C. for 6 min, at 4° C. for 5 min, at 42° C. for 60 min, at 95° C. for 5 min, and at 4° C. for 5 min, cDNA was synthesized. By using the cDNA (3˜5 μg) as template, and using a primer pair on respective genes noted in Table 3 and PCR Mastermix (Promega, US), PCR was performed on 3′UTR of ush, Lap1, CG8445, dbo, Lar, Ced-12, CG12333, cbt, FOG2, SEPT7, RIN2, SHC1, HOXB5, LF11, TCF7L1, ERBB21P, ELMO2, BAP1, WDR37, KLHL20, PTPRD, RASSF2 and VAC14 from among the target genes selected in Example 7. Herein, PCRP on atro as a drosophila control gene was also performed. After the reaction was completed, the PCR product on each gene's 3′UTR region was cleaved by each of the following restriction enzymes:
(§2) Then, it was cloned into pAC5.1 luciferase vector (a kind gift of Elisa Izaurralde) cleaved by the same restriction enzymes so as to produce a reporter plasmid having a miR-8 or miR-200 family target sequence in luciferase gene's 3′UTR sequence.
(§3) Reporter plasmids and renilla luciferase expression vectors (Promega, US), as noted in Table 4, and miRNAs of miR-200 family of miR-141, miR-200a (hsa-miR-200a, SEQ ID: 87: 5′-[…]-3′), miR-200b, miR-200c (has-miR-200c, SEQ ID: 88: 5′-[…]-3′) and miR-429, and miR-8 (dme-miR-8, SEQ ID: 89: 5′-[…]-3′) were bought from Samchonri and cotransfected into drosophila S2 cell lines or human Hela cell lines. Then, the activities of luciferase were measured through dual-luciferase assay (Promega, US) by a luminometer (Biorad). Then, 7 gene pairs that respond both to miR-8 and to mir-200 family miRNAs in Drosophila and human cells, respectively were identified (see FIG. 15).

[3] = test system: SHC1 3′UTR; assay: dual-luciferase 3′UTR reporter assay, pAC-SHC1; type: cell-based; settings: luciferase reporter with SHC1 3′UTR, human Hela cell lines; average of at least two independent experiments
Procedure: as §1, §2, §3

[4] = test system: KLHL20 3′UTR; assay: dual-luciferase 3′UTR reporter assay, pAC-KLHL20; type: cell-based; settings: luciferase reporter with KLHL20 3′UTR, human Hela cell lines; average of at least two independent experiments
Procedure: as §1, §2, §3

[5] = test system: VAC14 3′UTR; assay: dual-luciferase 3′UTR reporter assay, pAC-VAC14; type: cell-based; settings: luciferase reporter with VAC14 3′UTR, human Hela cell lines; average of at least two independent experiments
Procedure: as §1, §2, §3

[6] = test system: WDR37 3′UTR; assay: dual-luciferase 3′UTR reporter assay, pAC-WDR37; type: cell-based; settings: luciferase reporter with WDR37 3′UTR, human Hela cell lines; average of at least two independent experiments
Procedure: as §1, §2, §3

[7] = test system: HOXB5 3′UTR; assay: dual-luciferase 3′UTR reporter assay, pAC-HOXB5; type: cell-based; settings: luciferase reporter with HOXB5 3′UTR, human Hela cell lines; average of at least two independent experiments
Procedure: as §1, §2, §3

[8] = test system: MCF-7 cell lines; assay: cell proliferation by counting the number of cells; type: cell-based, human; settings: MCF-7 cell lines transduced; counted on day 1, 4, 5, 6, 7 and 8; compared to untreated or siGFP cells
Excerpt: It has been known that when human miRNAs, that is, miR-200 family (miR-200a, miR-200b, miR-200c, miR-141, and miR-429) are transduced into human cell lines, cell growth is promoted (Park, S Y et al., 2009, Nat Struct Mol Biol 16, 23-29). In MCF-7 cell lines not treated with anything, and MCF-7 cell lines transduced with siRNA targeting GFP (siGFP, SEQ ID: 1: 5′-UGAAUUAGAUGGCGAUGUU-3′, Samchonri), miR-200 family [miR-141(has-miR-141, SEQ ID: 2: 5′-[…]-3′), miR-200b (has-miR-200b, SEQ ID: 3: 5′-[…]-3′), miR-429(has-miR-429, SEQ ID: 4: 5′-[…]-3′)] and miR-29b (known to inhibit cell proliferation), on day 1, 4, 5, 6, 7 and 8, the inventors counted the number of cells and measured cell proliferation.

[9] = test system: SEPT7 3′UTR; assay: dual-luciferase 3′UTR reporter assay, pAC-SEPT7; type: cell-based; settings: luciferase reporter with SEPT7 3′UTR, human Hela cell lines; average of at least two independent experiments
Procedure: as §1, §2, §3

[10] = test system: PTPRD 3′UTR; assay: dual-luciferase 3′UTR reporter assay, pAC-PTPRD; type: cell-based; settings: luciferase reporter with PTPRD 3′UTR, human Hela cell lines; average of at least two independent experiments
Procedure: as §1, §2, §3

Q: “5′-UAAUACUGUCUGGUAAAACCGU-3′ (listed as RNA, chemistry not given here) [miR-429]” was tested. Which “FOXO activity (activity of luciferase, pFK1tk-luc)” value (“FOXO activity” below) [1] did it give?
A: significantly repressed

Q: What about the “Represion fold, TCF7L1” value [2] of the same substance?
A: 0.71 fold

Q: What about the “Represion fold, SHC1” value [3] of the same substance?
A: 2.17 fold

Q: And the “Represion fold, KLHL20” value [4]?
A: 0.55 fold

Q: What about the “Represion fold, VAC14” value [5] of the same substance?
A: 1.17 fold

Q: And the “Represion fold, WDR37” value [6]?
A: 1.31 fold

Q: What about the “Represion fold, HOXB5” value [7] of the same substance?
A: 0.72 fold

Q: And the “cell proliferation (number of cells)” value [8]?
A: increased cell proliferation

Q: What about the “Represion fold, SEPT7” value [9] of the same substance?
A: 1.14 fold

Q: And the “Represion fold, PTPRD” value [10]?
A: 0.75 fold

Q: Which results are given for “5′-UAAUACUGCCUGGUAAUGAUGA-3′ (listed as RNA, chemistry not given here) [miR-200b]”?
A: FOXO activity (activity of luciferase, pFK1tk-luc) [1]: significantly repressed; Represion fold, TCF7L1 [2]: 0.81 fold; Represion fold, SHC1 [3]: 1.41 fold; Represion fold, KLHL20 [4]: 0.85 fold; Represion fold, VAC14 [5]: 1.20 fold; Represion fold, WDR37 [6]: 1.16 fold; Represion fold, HOXB5 [7]: 0.73 fold; cell proliferation (number of cells) [8]: increased cell proliferation; Represion fold, SEPT7 [9]: 0.95 fold; Represion fold, PTPRD [10]: 0.89 fold

Q: How did the “FOXO activity” value [1] turn out when “5′-UAACACUGUCUGGUAAAGAUGG-3′ (listed as RNA, chemistry not given here) [miR-141]” was run?
A: significantly repressed

Q: What about the “Represion fold, TCF7L1” value [2] of the same substance?
A: 0.91 fold

Q: What about the “Represion fold, SHC1” value [3] of the same substance?
A: 1.64 fold

Q: What about the “Represion fold, KLHL20” value [4] of the same substance?
A: 0.84 fold

Q: And the “Represion fold, VAC14” value [5]?
A: 0.99 fold

Q: And the “Represion fold, WDR37” value [6]?
A: 1.07 fold

Q: And the “Represion fold, HOXB5” value [7]?
A: 0.92 fold

Q: And the “cell proliferation (number of cells)” value [8]?
A: increased cell proliferation

Q: What about the “Represion fold, SEPT7” value [9] of the same substance?
A: 1.00 fold

Q: And the “Represion fold, PTPRD” value [10]?
A: 0.89 fold

Q: Which “FOXO activity” value [1] does the source give for “5′-UAACACUGUCUGGUAACGAUGU-3′ (listed as RNA, chemistry not given here) [miR-200a]” here?
A: significantly repressed

Q: And the “Represion fold, TCF7L1” value [2]?
A: 1.17 fold

Q: And the “Represion fold, SHC1” value [3]?
A: 1.63 fold

Q: What about the “Represion fold, KLHL20” value [4] of the same substance?
A: 1.02 fold

Q: What about the “Represion fold, VAC14” value [5] of the same substance?
A: 1.19 fold

Q: What about the “Represion fold, WDR37” value [6] of the same substance?
A: 0.76 fold

Q: And the “Represion fold, HOXB5” value [7]?
A: 1.16 fold

Q: What about the “Represion fold, SEPT7” value [9] of the same substance?
A: 0.97 fold

Q: And the “Represion fold, PTPRD” value [10]?
A: 1.25 fold
